Measured values reported in patent US20130096088A1, “Inhibitors of Protein Tyrosine Kinase Activity” (METHYLGENE INC., priority 2011, published 2013).

Target: T1, VEGFR2 (KDR) (Homo sapiens, UniProt P35968)
T1 construct: made in house; host or cells: Sf9 cells (Spodoptera frugiperda), baculovirus
Test: In vitro receptor tyrosine kinase assay (VEGF receptor KDR), DELFIA
Assay type: biochemical
Settings: recombinant GST-VEGFR2 806-1356, ATP 0.6 uM; read-out: VEGFR IC50UM
Description: In Vitro Receptor Tyrosine Kinase Assay (VEGF Receptor KDR)
This test measures the ability of compounds to inhibit the enzymatic activity of recombinant human VEGF receptor enzymatic activity.
A 1.6-kb cDNA corresponding to the catalytic domain of VEGFR2 (KDR) (Genbank accession number AF035121 amino acid 806 to 1356) is cloned into the Pst I site of the pDEST20 Gateway vector (Invitrogen) for the production of a GST-tagged version of that enzyme. This construct is used to generate recombinant baculovirus using the Bac-to-Bac™ system according to the manufacturer's instructions (Invitrogen).
The GST-VEGFR2806-1356 protein is expressed in Sf9 cells (Spodoptera frugiperda) upon infection with recombinant baculovirus construct. Briefly, Sf9 cells grown in suspension and maintained in serum-free medium (Sf900 II supplemented with gentamycin) at a cell density of about 2×10^6 cells/ml are infected with the above-mentioned viruses at a multiplicity of infection (MOI) of 0.1 during 72 hours at 27° C. with agitation at 120 rpm on a rotary shaker. Infected cells are harvested by centrifugation at 398 g for 15 min. Cell pellets are frozen at −80° C. until purification is performed.
All steps described in cell extraction and purification are performed at 4° C. Frozen Sf9 cell pellets infected with the GST-VEGFR2806-1356 recombinant baculovirus are thawed and gently resuspended in Buffer A (PBS pH 7.3 supplemented with 1 μg/ml pepstatin, 2 μg/ml Aprotinin and leupeptin, 50 μg/ml PMSF, 50 μg/ml TLCK and 10 μM E64 and 0.5 mM DTT) using 3 ml of buffer per gram of cells. Suspension is Dounce homogenized and 1% Triton X-100 is added to the homogenate after which it is centrifuged at 22500 g, 30 min., 4° C. The supernatant (cell extract) is used as starting material for purification of GST-VEGFR2806-1356.
The supernatant is loaded onto a GST-agarose column (Sigma) equilibrated with PBS pH 7.3. Following a four column volume (CV) wash with PBS pH 7.3+1% Triton X-100 and 4 CV wash with buffer B (50 mM Tris pH 8.0, 20% glycerol and 100 mM NaCl), bound proteins are step eluted with 5 CV of buffer B supplemented with 5 mM DTT and 15 mM glutathion. GST-VEGFR2806-1356 enriched fractions from this chromatography step are pooled based on U.V. trace i.e. fractions with high O.D.280. Final GST-VEGFR2806-1356 protein preparations concentrations are about 0.7 mg/ml with purity approximating 70%. Purified GST-VEGFR2806-1356 protein stocks are aliquoted and frozen at −80° C. prior to use in enzymatic assay.
Inhibition of VEGFR/KDR is measured in a DELFIA™ assay (Perkin Elmer). The substrate poly(Glu4,Tyr) is immobilized onto black high-binding polystyrene 96-well plates. The coated plates are washed and stored at 4° C. During the assay, the enzyme is pre-incubated with inhibitor and Mg-ATP on ice in polypropylene 96-well plates for 4 minutes, and then transferred to the coated plates. The subsequent kinase reaction takes place at 30° C. for 10-30 minutes. ATP concentrations in the assay are 0.6 uM for VEGFR/KDR (2× the Km). Enzyme concentration is 5 nM. After incubation, the kinase reactions are quenched with EDTA and the plates are washed. Phosphorylated product is detected by incubation with Europium-labeled anti-phosphotyrosine MoAb. After washing the plates, bound MoAb is detected by time-resolved fluorescence in a Gemini SpectraMax reader (Molecular Devices). Compounds are evaluated over a range of concentrations, and IC50 values (concentration of compounds giving 50% inhibition of enzymatic activity) are determined.

T1 sequence (P35968 806-1356): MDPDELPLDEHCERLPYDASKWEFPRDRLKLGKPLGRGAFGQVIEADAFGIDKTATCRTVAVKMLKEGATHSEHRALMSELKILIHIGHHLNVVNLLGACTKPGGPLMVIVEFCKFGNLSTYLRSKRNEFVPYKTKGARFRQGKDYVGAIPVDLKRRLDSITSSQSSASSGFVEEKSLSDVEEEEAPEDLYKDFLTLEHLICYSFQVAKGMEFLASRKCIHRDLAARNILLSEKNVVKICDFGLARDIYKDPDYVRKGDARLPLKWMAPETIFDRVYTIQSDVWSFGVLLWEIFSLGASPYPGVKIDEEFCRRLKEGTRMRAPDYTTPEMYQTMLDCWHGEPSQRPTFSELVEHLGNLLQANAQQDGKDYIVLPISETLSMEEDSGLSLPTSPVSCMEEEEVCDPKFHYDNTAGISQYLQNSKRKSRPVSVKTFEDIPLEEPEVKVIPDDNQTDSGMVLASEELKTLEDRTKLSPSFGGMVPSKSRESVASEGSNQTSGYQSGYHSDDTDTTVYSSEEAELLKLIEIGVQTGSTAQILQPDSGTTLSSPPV

SMILES | IC50 [µM]
O=C(Nc1ccc(Oc2ccnc3cc(-c4ccc(CN5CCOCCOCCOCCOCCOCC5)cn4)sc23)c(F)c1)NC1CC1 [Compound 8, 1-(4-(2-(5-((1,4,7,10,13-Pentaoxa-16-azacyclooctadecan-16-yl)methyl)pyridin-2-yl)thieno[3,2-b]pyridin-7-yloxy)-3-fluorophenyl)-3-cyclopropylurea] | 0.013
COCCOCCOCCOCCOCCC(=O)OCC(=O)N1CCN(Cc2ccc(-c3cc4nccc(Oc5ccc(NC(=O)NC6CC6)cc5F)c4s3)nc2)CC1 [Compound 19] | 0.02
COCCOCCOCCOCCNC1CCN(Cc2ccc(-c3cc4nccc(Oc5ccc(NC(=O)NC6CC6)cc5F)c4s3)nc2)CC1 [Compound 22, 1-(4-(2-(5-((4-(2,5,8,11-Tetraoxamidecan-13-ylamino)piperidin-1-yl)methyl)pyridin-2-yl)thieno[3,2-b]pyridin-7-yloxy)-3-fluorophenyl)-3-cyclopropylurea] | 0.013
COCCOCCOCCOCCN(C1CCN(Cc2ccc(-c3cc4nccc(Oc5ccc(NC(=O)NC6CC6)cc5F)c4s3)nc2)CC1)S(C)(=O)=O [Compound 26] | 0.013
COCCOCCOCCOCCOCCn1cc(-c2cc3nccc(Oc4ccc(NC(=O)NC5CC5)cc4F)c3s2)nn1 [Compound 33, 1-(4-(2-(1-(2,5,8,11,14-Pentaoxahexadecan-16-yl)-1H-1,2,3-triazol-4-yl)thieno[3,2-b]pyridin-7-yloxy)-3-fluorophenyl)-3-cyclopropylurea] | 0.107
COCCOCCOCCOCCOc1ccccc1NCc1ccc(-c2cc3nccc(Oc4ccc(NC(=O)NC5CC5)cc4F)c3s2)nc1 [Compound 38, 1-(4-(2-(5-((2-(2,5,8,11-Tetraoxamidecan-13-yloxy)phenylamino)methyl)pyridin-2-yl)thieno[3,2-b]pyridin-7-yloxy)-3-fluorophenyl)-3-cyclopropylurea] | 0.024
COCCOCCOCCOCCOc1cccc(NCc2ccc(-c3cc4nccc(Oc5ccc(NC(=O)NC6CC6)cc5F)c4s3)nc2)c1 [Compound 40] | 0.024
COCCOCCOCC(=O)N1CC(N(CC(=O)O)Cc2ccc(-c3cc4nccc(Oc5ccc(NC(=O)NC6CC6)cc5F)c4s3)nc2)C1 [Compound 45, 2-(((6-(7-(4-(3-Cyclopropylureido)-2-fluorophenoxy)thieno[3,2-b]pyridin-2-yl)pyridin-3-yl)methyl)(1-(2-(2-(2-methoxyethoxy)ethoxy)acetyl)azetidin-3-yl)amino)acetic acid] | 0.003
COCCOCCOCCOCC(=O)N1CCN(Cc2ccc(-c3cc4nccc(Oc5ccc(NC(=O)NC6CC6)cc5F)c4s3)nc2)CC1 [Compound 47] | 0.012
COCCOCCOCCOCCOCC(=O)N1CCN(Cc2ccc(-c3cc4nccc(Oc5ccc(NC(=O)NC6CC6)cc5F)c4s3)nc2)CC1 [Compound 48] | 0.013
COCCOCCOCCOCCOCCOC(=O)N1CCN(Cc2ccc(-c3cc4nccc(Oc5ccc(NC(=O)NC6CC6)cc5F)c4s3)nc2)CC1 [Compound 52] | 0.013
COCCOCCOCCNC(=O)N1CCN(Cc2ccc(-c3cc4nccc(Oc5ccc(NC(=O)NC6CC6)cc5F)c4s3)nc2)CC1 [Compound 54, 4-((6-(7-(4-(3-Cyclopropylureido)-2-fluorophenoxy)thieno[3,2-b]pyridin-2-yl)pyridin-3-yl)methyl)-N-(2-(2-(2-methoxyethoxy)ethoxy)ethyl)piperazine-1-carboxamide] | 0.002
COCCOCCOCCOCCNC(=O)N1CCN(Cc2ccc(-c3cc4nccc(Oc5ccc(NC(=O)NC6CC6)cc5F)c4s3)nc2)CC1 [Compound 55] | 0.002
COCCOCCOCCOCCOCCNC(=O)N1CCN(Cc2ccc(-c3cc4nccc(Oc5ccc(NC(=O)NC6CC6)cc5F)c4s3)nc2)CC1 [Compound 56] | 0.002
